Source: patent US9272047B2, “Use of biological surfactant as anti-inflammatory agent and tissue preservative solution” (Shaperon Inc., priority 2007, dated 2016)
Entries after “also recorded” stand apart in the source; their conditions may differ.

Key:
[1] = tested on: interaction between fluorescein-labeled E. coli LPS and a CHO cell; assay: Inhibition of the interaction between fluorescein (BODIPY)-labeled E. coli LPS and CHO cells, flow cytometry; assay type: cell-based, Chinese hamster; settings: CHO cells, 7-AAD(−) living cells
Procedure: Boron dipyrromethene difluoride (BODIPY), a fluorescein, labeled E. coli LPS and CHO cells were used. BODIPY-labeled LPS was reacted with sodium glycocholate in a glass tube at 37° C. for 14 hours. 2×10^5 CHO cells mixed with the reacting solution were plated per well in a 96-well plate, and then incubated at 37° C. for 14 hours. The incubated solution was stained with 7-amino-actinomycin D (7-AAD) and then analyzed by a flow cytometer. The analysis was performed at least twice per each treatment group and the obtained data were statistically processed by t-test. The result was P<0.05 in comparison with the experimental group in which CHO cells were treated with only BODIPY-LPS.
7-AAD(−) cells were selected in order to analyze living cells. […] Therefore, it could be realized that Inflammatory inhibition efficacy of sodium glycocholate shown in the LPS-stimulated inflammatory response was due to the blocking of the interaction between LPS and cells by the action of sodium glycocholate.

macrophages [2] = assay: In vitro proinflammatory cytokine generation by E. coli LPS, macrophages (ELISA); assay type: cell-based, C57BL/6 mouse; settings: LPS stimulation
Procedure: (§1) In order to assay the effect of sodium glycocholate on the generation of proinflammatory cytokines induced by E. coli LPS, dendritic cells were prepared in the same way as Example 3, and macrophages were separated from the abdomen of C57BL/6 mouse. Thereafter, sodium glycocholate and LPS were reacted in vitro for 1 hour at 37° C., and then mixed with the cells. Each cell was stimulated for 14 hours at 37° C., and then supernatant fluid was separated.
(§2) The concentrations of TNF-α and interleukin-12p40 in the separated supernatant fluid was measured by an enzyme-linked immunoabsorbent assay (ELISA).
(§3) Each group was treated and assayed at least twice, and the results were statistically analyzed through t-test. The results were p<0.05 compared with the experimental groups treated by only LPS.

dendritic cells [3] = assay: In vitro proinflammatory cytokine generation by E. coli LPS, dendritic cells (ELISA); assay type: cell-based, mouse; settings: LPS stimulation
Procedure: as §1, §2, §3

macrophages [4] = assay: Inhibition of LPS-induced nitric oxide generation, macrophages (Griess); assay type: cell-based, mouse; settings: macrophages stimulated by LPS, 18 hours
Procedure: (§4) Then, the resulting dendritic cell mixtures were plated, by […] each, in a 96-well plate. Griss reagents were added to each well, and the 96-well plate was covered with foils and kept reacting for 15 min at room temperature. Absorbance at 540 nm was measured using an ELISA reader. Macrophages separated from abdomen were also treated with sodium glycocholate, sodium taurochenodeoxycholate and sodium taurodeoxycholate, respectively, and then stimulated with LPS for 18 hours. Thereafter, the same experiments as the dentritic cells were performed to the macrophages.

dendritic cells [5] = assay: Inhibition of LPS-induced nitric oxide generation, dendritic cells (Griess); assay type: cell-based, mouse; settings: dendritic cells stimulated by LPS, 18 hours
Procedure: as §4

[6] = tested on: LPS-administered C57BL/6 mouse; assay: In vivo serum cytokines in LPS-administered mice (CBA kit)
Procedure: As described in Example 7, 20 mg/kg of LPS was administered into the abdomen of mice and then 12.5 mg/kg of sodium glycocholate, and 20 mg/kg of LPS and 50 mg/kg of sodium glycocholate respectively was administered twice into the abdomen of mice, respectively. At the predetermined time, blood was collected from mouse tail and then serum was obtained by centrifugation (2400×g, 10 min). The change of cytokine expression in the serum was measured by using cytometric bead array (CBA) kit.

dendritic cells [7] = assay: Cytotoxicity to dendritic cells (7AAD, FACS); assay type: cell-based, mouse
Procedure: (§5) The cytotoxicity of sodium glycocholate to the CHO cells, dendritic cells, T cells which were used in the above Examples was assayed. FACS analysis was performed after staining with 7AAD. First, sodium glycocholate was kept in vitro for 1 hour at 37° C., and then mixed with cells. CHO cells or dendritic cells were incubated for 14 hours at 37° C., and T cells which were mixed with 14 hour-incubated dendritic cells, were incubated for 4 days. Then, each cell was stained with 7AAD and cell analysis were carried out by using a flow cytometer.

[8] = tested on: dendritic cell-mediated T cells; assay: Cytotoxicity to dendritic cell-mediated T cells (7AAD, FACS); assay type: cell-based, mouse
Procedure: as §5

abdominal cells = assay: Toxicity to abdominal cells separated from mice after abdominal administration (7AAD); assay type: in vivo, C57BL/6 mouse; settings: 5 mg (250 mg/kg) into abdomen, cells separated after 1 hour
Procedure: In order to assay the toxicity of sodium glycocholate to a mouse, experiments were performed to five C57BL/6 male mice of 7-9 weeks age per each group. Sodium glycocholate dissolved in PBS was kept in vitro for 1 hour at 37° C., and then the sodium glycocholate solution was administered into the abdomen of the mice followed by the cell analysis. After 1 hour from the administration, the abdominal cells were separated and stained with 7AAD, and then the abdominal cells were analyzed. Cells which were freezed and thawed at least five times were used for a positive control group in 7ADD staining. Experimental results were statistically analyzed by t-test, and p<0.05 compared with the experimental group which was not treated with sodium glycocholate.

Balb/c mice = assay: Acute toxicity in mice, single administration into abdomen or tail vein; assay type: in vivo
Procedure: Acute toxicity was measured by using five Balb/c mice of 6 weeks age per group, which were once administered with sodium glycocholate, at different sodium glycocholate concentrations, into the abdomen and tail vein. […] However, 250 mg/kg of sodium glycocholate at which the above-mentioned effects of sodium glycocholate, and the sodium glycocholate concentration of below 250 mg/kg, 100 % of the mice survived (FIGS. 32A-32B). Also, 100 % of the mice survived at the sodium glycocholate concentration of not exceeding 150 mg/kg in the experiment where sodium glycocholate of different concentrations was adiministered into tail vein of mice (FIG. 33).

SMILES: C[C@H](CCC(=O)NCC(=O)[O-])[C@H]1CC[C@H]2[C@@H]3[C@H](O)C[C@@H]4C[C@H](O)CC[C@]4(C)[C@H]3C[C@H](O)[C@]12C.[Na+] [sodium glycocholate]
- interaction between BODIPY-LPS and the cell [1]: inhibited according to the increase of the concentration
- inhibition of generation of TNF-α (macrophages [2]; 0.5 mg/ml): 42.2±0.9%
- inhibition of generation of interleukine-12p40 (macrophages [2]; 0.5 mg/ml): 9.8±11.0%
- inhibition of generation of TNF-α (macrophages [2]; 1 mg/ml): 87.8±0.2%
- inhibition of generation of interleukine-12p40 (macrophages [2]; 1 mg/ml): 54.3±4.1%
- inhibition of generation of TNF-α (dendritic cells [3]; 0.5 mg/ml): 70.2±2.3%
- inhibition of generation of interleukine-12p40 (dendritic cells [3]; 0.5 mg/ml): 4.7±3.1%
- inhibition of generation of TNF-α (dendritic cells [3]; 1 mg/ml): 101.0±0.2%
- inhibition of generation of interleukine-12p40 (dendritic cells [3]; 1 mg/ml): 106.6±1.3%
- generation of NO (macrophages [4]): inhibited
- generation of NO (dendritic cells [5]): inhibited
- IL-10 in serum [6]: significantly increased; also recorded: increase
- IFN-g in serum ([6]; after 4, 8 and 12 hours): decrease
- IL-12p70 in serum ([6]; after 4, 8 and 12 hours): decrease
- IL-6 in serum ([6]; after 12, 24 and 48 hours): remarkably decreased; also recorded: decrease
- MCP-1 in serum ([6]; after 12, 24 and 48 hours): remarkably decreased; also recorded: decrease
- TNF-α in serum ([6]; after 12, 24 and 48 hours): remarkably decreased; also recorded: decrease
- cytotoxicity (dendritic cells [7]; 1 mg/ml): no significant cytotoxicity; also recorded: dose not have cytotoxicity
- 7AAD(+) increase compared with the negative control group (dendritic cells [7]; 14 hours): 2-4%
- cytotoxicity ([8]; 1 mg/ml): no significant cytotoxicity; also recorded: dose not have cytotoxicity
- 7AAD(+) increase compared with the negative control group ([8]; 4 days): 2-4%
- cytotoxicity for abdominal cells (survival rate of the abdominal cells versus PBS control) (abdominal cells): no significant difference; also recorded: dose not have cytotoxicity
- mice survived (Balb/c mice; abdominal administration, 250 mg/kg and below): 100%
- concentration (dose) at which toxicity was shown (Balb/c mice; abdominal administration, single dose): > 500 mg/kg
- adverse effect (Balb/c mice; mouse test, dose of 250 mg/kg mouse): no adverse effect
- mice survived (Balb/c mice; tail vein administration, not exceeding 150 mg/kg): 100%
